Data on 4 compounds can be found in US20060198882A1, “Stable liposomes or micelles comprising a sphinolipid and a peg-lipopolymer” (priority 2003, published 2006).

“And” between values parts separate entries of the source, which are not always exact repeats. Equal values may be shown once. Read-outs that look alike come from different tables or passages of the source. A value given as a limit tells only on which side of the number the result lay.

What is called IC50 is the concentration that inhibits the measured activity by half.

Data set [1] is described as follows: Partition in the two phases of the Dole system. In kind it is physicochemical. The protocol:
The distribution of the C18 sphingosine-based ceramides with different acyl chain lengths and of DMS between the polar phase and respectively less polar phase (as defined below) of the Dole two phase system was determined. […] The different ceramides included: short (C2 Cer and C4 Cer), medium (C6 Cer and C8 Cer), long (C16 Cer). […] In: Liposome Technology 2nd Edn., G Gregoriadis (Ed.) CRC Press, Boca Raton, 1993, vol. 1, pp: 527-616]. The amount of each of the lipids used in each of the two phases was measured by thin-layer chromatography (TLC). For ceramide quantification TLC was developed in a solvent system containing chloroform/methanol (95:5 v/v). For DMS quantification TLC was developed in a solvent system containing chloroform/methanol/ammonia (89/9/2 v/v). Further, the TLC plate was sprayed with Copper sulfate reagent composed of 100 g anhydrous copper sulfate containing 80 ml of phosphoric acid (85%), %) dissolved in 600 ml of DDW. Copper sulphate reagent was applied to the plates by spraying, then heated and lipids appeared as dark brown spot. […] Quantity of ceramides in each phase was calculated from a standard curve of appropriate ceramide. […] (1993)Supra]. The distribution between the two Dole system phases was determined by the equation (as exemplified for ceramide): [formula] [formula] Where Kp denotes the partition coefficient of a given lipid or amphiphile referred to in the equation as lipid; Cer denotes ceramide; up is an abbreviation for the heptane rich low polarity upper phase and lp is an abbreviation for the polar isopropanol water rich lower phase.

Data set [2] is described as follows: Partition in the two phases of the Dole system. In kind it is physicochemical. The source holds these as a separate data set.
The subject of data set [3] is C-26. The experiment in a line: Methylene blue assay of cell survival. It is filed as cell-based, human. The conditions noted are these: Table 8B. An excerpt:
(§1) Several tumor cell lines in monolayers were used. A human ovarian carcinoma cell line (OV-1063), established at the Hadassah University Hospital, a human colon carcinoma cell line (C-26), a DOX-sensitive M-109S ([…]), and a DOX-resistant, M-109R ([…]). All cell lines were maintained in RPMI-1640 medium supplemented with 10% FCS, antibiotics, and glutamine. All culture medium components were purchased from Biological Industries (Beit-HaEmek, Israel). Both cell lines were maintained at 37° C. in a water-jacketed CO2 incubator.
(§2) a) Various ceramides (Cer) with different chain lengths: short (C2 Cer and C4 Cer), medium (C6 Cer and C8 Cer), and long (C16 Cer) were first dissolved in 100% ethanol to a concentration of 30 mM, added to a serum-containing medium and mixed immediately. The final ethanol concentration in the serum-containing culture medium ranged from 0.1-0.5% (depending on the type of ceramide (Cer)).
(§3) b) Various ceramides with different chain lengths: short C2 Cer, medium C6 Cer, and long C16 Cer were dissolved in ethanol:dodecane (98:2 v/v) to a concentration of 30 mM and added to serum-free medium and mixed. Final concentrations of the ethanol and dodecane in the culture medium containing 10% of FCS ranged from 0.098-0.49% and 0.002-0.01%, respectively, depending on the type of ceramide.
(§4) The cytotoxicity of the examined assemblies comprising ceramide was tested by the methylene blue ([…]) staining assay [Gorodetsky, R. et al. Int. J. Cancer. 75:635-642 (1998)]. A known number of exponentially growing cells in 200 μL of medium were plated in 96-microwell, flat-bottomed plates. For each of the variants tested, 4 wells were used. Following 24 hr of incubation in culture, 20 μL of different concentrations of the examined assemblies were added to each well containing untreated cells.
(§5) The following controls were used: Citrate buffer (5 mM, pH 7); Ethanol solution in medium RPMI 1640 (final concentration of 0.1%); A solution RPMI 1640 of ethanol:dodecane (98:2 […]) at a final concentration of 0.1% and 0.2%, respectively.
(§6) Cells were exposed to assemblies for 4, 24, 72 or 96 hr. At the end of assembly exposure, for a fixed time interval, the drug-treated cells, as well as parallel control cells, were washed, and the incubation continued in fresh medium until termination of the experiment. Following 72 hr or 96 hr of growth, cells were fixed by adding 50 μL of 2.5% glutaraldehyde to each well for 15 min. Fixed cells were rinsed 10 times with deionized water and once with borate buffer (0.1 M, pH 8.5), dried, and stained with MB (100 μL of 1% solution in 0.1 M borate buffer, pH 8.5) for 1 h at room temperature (r.t.). Stained cells were rinsed thoroughly with de-ionized water to remove any non-cell-bound dye and then dried. The MB bound to the fixed cells was extracted by incubation at 37° C. with 200 μL of 0.1 N HCl for 1 h, and the net optical density of the dye in each well was determined by a plate spectrophotometer (Labsystems Multyskan Bichromatic, Finland) at 620 nm.

For data set [4], the system named is OV-1063. The experiment in a line: Methylene blue assay of cell survival. In kind it is cell-based, human. The conditions noted are these: Table 8B.
From the text: as §1, §2, §3, §4, §5, §6

Data set [5] can be described thus: Surface-pressure area isotherms. In kind it is physicochemical. Particulars: for minimal area per molecule: constant pressure of 20 mN/m; for collapse point pressure of monolayer: pure water sub-phase; for Area/molecule: table, monolayer on pure water sub-phase. The protocol:
The tested ceramides (C2 Cer, C4 Cer, C6 Cer, C8 Cer, C16 Cer) were dried in vacuum overnight, weighted and dissolved in hexane/isopropanol (3:2 vol.) to make the following stock solutions.
The surface-pressure/area isotherms were obtained on pure water sub-phase (similar isotherms were obtained on 140 mM NaCl). Barrier speed during compression was […] for all monolayers.
The minimal area per molecule of different ceramides (C2 Cer, C4 Cer, C6 Cer, C8 Cer, C16 Cer) was calculated at the constant pressure of 20 mN/m. […] The area per molecule of C2 Cer, C4 Cer, C8 Cer, C16 Cer was about 38, 46, 45.5, and 37.5^2, respectively.

Data set [6] relates to C-26 cells. The experiment in a line: Apoptosis by chromatin morphology (Hoechst-33342, confocal microscopy). It is filed as cell-based, human. Particulars: 24 hr. The protocol:
(§7) a) The morphology of chromatin was assessed by staining with Hoechst-33342 obtained from Calbiochem (La Jolla, Calif.), a molecule which when reside in the minor groove of the DNA strand enhance its fluorescence intensity and, therefore, it is preferentially stains dsDNA [Jouvet, P. Mol. Biol. Cell 11:1919-1932 (2000)]. Briefly, samples containing 5*10^5 cells were cultured on 6-well plates covered with a glass coverslip. After treatment of cells with IC50 of drugs, cells were washed with PBS and fixated with 4% formaldehyde. After that cells were stained with Hoechst-33342 (5 μg/ml) and washed. Thereafter, glass coverslip was placed on a glass slide and photographed using a CLMS.

In data set [7] the test system is OV-1063 cells. The description is as above. In kind it is cell-based, human. Particulars: 24 hr. The protocol:
as §7

Setting [8] is: read-out: IC50 (μM), 24 hr C-26.
Setting [9] is: read-out: IC50 (μM), 72 hr C-26.
Where [10] appears, read: read-out: IC50 (μM), 4 hr OV-1063.
Where [11] appears, read: read-out: IC50 (μM), 24 hr OV-1063.
The mark [12] stands for this setting: read-out: IC50 (μM), 72 hr OV-1063.

As to “hydrogenated soybean phosphatidylcholine [HSPC]”, in data set [1] (Dole two phase system), the “% of lipid in heptane-rich upper phase” value stood at 36%; the “% of lipid in isopropanol/water lower phase” value was found to be 64%; the “Kp (heptane rich/isopropanol and water rich partition coefficient)” value is 1.13. Also, the “Liposome formation (being a liposome forming lipid by itself)” value (“Liposome formation” below) in data set [2] is “Yes”.

As for `CCCCCCCCCCCCC/C=C/[C@@H](O)[C@H](CO)NC(=O)CCCCCCC` [C8Cer, N-octanoyl-D-erythro-sphingosine], the IC50 in data set [3] (read-out: IC50 (μM), 4 hr C-26) was over 40 µM; in data set [3] (setting [8]), 23 ± 1.4 µM; in data set [3] (setting [9]), 21.5 ± 2.1 µM; in data set [4] (setting [10]), over 40 µM; in data set [4] (setting [11]), 23.7 ± 1 µM; in data set [4] (setting [12]) it was 19 ± 1.4 µM. The “minimal area per molecule” value in data set [5] is given as about 45.5 Å^2. In addition, in data set [5], the “collapse point pressure of monolayer” value was “about 42 mN/m”. In data set [5], this compound returned an Area/molecule of 45.5 A^2. Besides, in data set [1], the “Kp (heptane rich/isopropanol and water rich partition coefficient)” value turned out to be 5.25. For the same compound, the “% of lipid in heptane-rich upper phase” value in data set [1] (Dole two phase system) turned out to be 72%. Also, in data set [1] (Dole two phase system), the “% of lipid in isopropanol/water lower phase” value was determined as 28%. The “Liposome formation” value in data set [2] was “No”.

With Egg phosphatidylcholine [EPC], in data set [1] (Dole two phase system), the “% of lipid in heptane-rich upper phase” value is on record as 15.2%; the “% of lipid in isopropanol/water lower phase” value worked out at 84.8%; the “Kp (heptane rich/isopropanol and water rich partition coefficient)” value is listed as 0.35. Also, the “Liposome formation” value in data set [2] is reported as “Yes”.

On to `CCCCCCCCCCCCC/C=C/[C@@H](O)[C@H](CO)NC(=O)CCC` [C4Cer, N-tetranoyl-D-erythro-sphingosine], for which the IC50 in data set [3] (read-out: IC50 (μM), 4 hr C-26) is 15.5 ± 3.5 µM; in data set [3] (setting [8]), 6.25 ± 0.35 µM; in data set [3] (setting [9]) it was 3.75 ± 0.35 µM; in data set [4] (setting [10]), 10 ± 2.7 µM; in data set [4] (setting [11]) it was 5.9 ± 0.14 µM; in data set [4] (setting [12]) it was 3.95 ± 0.6 µM. Also, the monolayer stability entry in data set [5] was “almost as stable as all the others”. Besides, the “minimal area per molecule” value in data set [5] was about 46 Å^2. Also, in data set [5], the “collapse point pressure of monolayer” value is “about 42 mN/m”. For the same compound, the Area/molecule in data set [5] stood at 46 A^2. The “Apoptotic C-26 cells (% of total cell number), 24 hr” value in data set [6] stood at 10%. Moreover, the “Apoptotic OV-1063 cells (% of total cell number), 24 hr” value in data set [7] is given as 58%. Also, in data set [1], the “Kp (heptane rich/isopropanol and water rich partition coefficient)” value came to 0.92. Further, in data set [1] (Dole two phase system), the “% of lipid in heptane-rich upper phase” value was 32% and 31.5%. Also, the “% of lipid in isopropanol/water lower phase” value in data set [1] (Dole two phase system) was 68.5%. The “Liposome formation” value in data set [2] is listed as “No”.
